Reference: patent publication US20140161767A1, “FOLLICLE-STIMULATING HORMONE (FSH)/LYTIC DOMAIN FUSION CONSTRUCTS AND METHODS OF MAKING AND USING SAME” (BOARD OF SUPERVISORS OF LOUISIANA STATE UNIVERSITY AND …, priority 2012, published 2014)

Legend:
[1] = system: OVCAR-3 xenograft; assay: OVCAR-3 ovarian cancer xenograft; format: in vivo
Experimental: The xenograft model of the OVCAR-3 human ovarian cancer cell line that present functional LHRH receptors was used in this study. OVCAR-3 represents a slow growing xenograft model and secretes the tumor marker (cancer antigen 125, or CA125). It's secretion can be used as treatment response and is a measure of drug activity.
In brief, Nu/Nu female mice, inbred strain, age 5 weeks (Harlan-Sprague Dawley) were injected subcutaneously with a NIH:OVCAR-3 cells/Matrigel suspension (4.6×10^6 cells/mouse). Treatment was started on day 33 after tumor cell injection when the tumors were established and continued on days 41 and 47. The doses for the 3 weekly injections were 0.02, 0.2 and 2 mg/kg body weight, given as a single bolus intravenous injection via lateral tail vein administered once a week for three weeks on days 33, 41 and 47. Necropsies were conducted on day 52. Data are presented as mean SEM. Arrows show dosing.
A group of 9 tumor bearing mice was sacrificed on day 33 and served as baseline group. All mice were necropsied 51-52 days after tumor cell injection. Tumor volumes and bodyweights were recorded twice weekly during the study, as well as overall veterinarian examination of mice was conducted.
Primary tumors, liver, kidney, pancreas, heart, lung, and spleen were collected, fixed in formalin and prepared for histological evaluation. Tumor weights were measured at necropsy, part of the tumors were frozen at −80° C. for LH/CG and LHRH receptor assay determination.
As a biomarker for drug activity, CA125 was determined in serum, collected from each individual mouse at necropsy using a Enzyme Linked Immunoassay for quantitative determination of ovarian cancer antigen CA125 (Assay kit Genway, Biotech, Inc. San Diego, Calif., Catalog #40-052-115009, # BC-1013 according to the manufacturer).
LHRH receptor levels were assessed from formalin fixed tumors. Quantitative immunoperoxidase image analysis was conducted with the Ventana Image Analysis System (VIAS) adjunctive computer assisted image analysis system functionally connected to an interactive microscope (Axio Imager). The quantitative analysis was conducted with the program for quantification of Her2/neu receptor that included morphometric and colorimetric analysis. Receptor status results were reported as percentage of cells showing positive staining of the LHRH receptors under the following criteria: 0 non-immunoreactive, 1+: 1-25% positive, 2+: 26 50% positive, 3+: 51-75% positive cells.

[2] = system: MDA-MB-435S; conditions: cited from earlier work
[3] = system: PC-3 xenograft; assay: PC-3 prostate cancer xenograft, FSH-Phor18 fusion constructs; format: in vivo, mice; conditions: compared to vehicle
Experimental: This example describes in vivo studies in a mouse xenograft model of human prostate cancer (PC-3) with the three types and doses of (3-FSH-Phor18-fusion constructs (hFSH-β-33-53; hFSH-β-81-95 and hFSH-β-90-95).
Male Nu/Nu mice were injected subcutaneously with a PC-3/Matrigel suspension (1×10^6 cells). Mice were allocated into treatment groups of 8 mice per group on day 21 after tumor cell injection. Treatment started on day 1 and continued on day 5, 8, 12, 15 and 19. […] The doses for twice weekly injections were given as a single bolus injection.

| Compound | Tumor volume at necropsy [3] | also measured |
| --- | --- | --- |
| N.N.[Cl][Pt][Cl] [Cisplatinum, reference compound] | – | Tumor weights at necropsy ([1]; Phor18-LHRH: 2 and 0.2 mg/kg vs saline and Phor18, p<0.05): not effective; Tumor volume ([1]; during treatment): no reduction |
| COc1cccc2c1C(=O)c1c(O)c3c(c(O)c1C2=O)C[C@@](O)(C(=O)CO)C[C@@H]3O[C@H]1C[C@H](N)[C@H](O)[C@H](C)O1 [doxorubicin] | – | time to destroy human breast cancer cells in vitro [2]: 4 h |
| CYTRDLVYKDPARPKIQKTCT [hFSH-β-33-53, unconjugated FSH beta chain fragment] | did not affect tumor volumes or tumor weights | – |
| DSTDCT (Follitropin subunit beta; UniProt P01225 108-113, looked up, fragment) [hFSH-β-90-95, unconjugated FSH beta chain fragment] | did not affect tumor volumes or tumor weights | – |
| QCHCGKCDSDSTDCT [hFSH-β-81-95, unconjugated FSH beta chain fragment] | did not affect tumor volumes or tumor weights | – |
